The values that follow come from ChEMBL document CHEMBL1121555, “Quantitative structure-selectivity relationships. Comparison of the inhibition of Escherichia coli and bovine liver dihydrofolate reductase by 5-(substituted-benzyl)-2,4-diaminopyrimidines” (J Med Chem, 1980).

Structures are written as SMILES.

What is called logD is the decadic logarithm of the distribution of all forms, ionised or not, between an organic phase and buffer at a given pH. A lower logD goes with lower lipophilicity.

The nature of the first series: Compound was evaluated for the partition coefficients probably at the pH >> 7.2 at the aqueous phase 0.1 N NaOH. As to conditions: 0.1 N NaOH (aqueous phase).
Regarding `Nc1ncc(Cc2ccccc2)c(N)n1`, the logD is 1.58.

A further series in a line: Compound was evaluated for the partition coefficients probably at the […] at the aqueous phase 0.1 N HCl. The class given is physicochemical. As to conditions: 0.1 N HCl (aqueous phase).
Consider `Nc1ncc(Cc2ccc([N+](=O)[O-])cc2)c(N)n1`, for which the pH-dependent lipophilicity (logD) is -1.03.
Still for that read-out and setting: the result for `CC(=O)Nc1ccc(Cc2cnc(N)nc2N)cc1` reads -1.94; that for `Nc1ncc(Cc2cccc(F)c2)c(N)n1`, -0.8.
Take `Nc1ncc(Cc2cccc(OCc3ccccc3)c2)c(N)n1`: the logD came out at 0.53.
On the same count and under the same terms, for `Cc1cccc(Cc2cnc(N)nc2N)c1` the value was -0.51; for `Nc1ncc(Cc2ccccc2)c(N)n1`, -1.03; for `Nc1ncc(Cc2cccc(Cl)c2)c(N)n1`, -0.36.
The same measure, in the same setting: the result for `COc1cccc(Cc2cnc(N)nc2N)c1` reads -0.92.
